Reference: publication PMC9673787, “1,2,3-Benzoxathiazine-2,2-dioxides – effective inhibitors of human carbonic anhydrases” (Journal of Enzyme Inhibition and Medicinal Chemistry, 2022)
Like-named read-outs stand apart in the source and are kept apart here.

Tests used:
hCA I = biological target: T1, hCA I (Homo sapiens, UniProt P00915); assay: stopped flow CO2 hydrase assay, hCA I; assay type: biochemical; conditions: 15 min incubation; for Ki: recombinant enzyme, mean from three assays, errors ± 5–10%
T1 construct: made in house
T1 sequence (P00915 whole entry): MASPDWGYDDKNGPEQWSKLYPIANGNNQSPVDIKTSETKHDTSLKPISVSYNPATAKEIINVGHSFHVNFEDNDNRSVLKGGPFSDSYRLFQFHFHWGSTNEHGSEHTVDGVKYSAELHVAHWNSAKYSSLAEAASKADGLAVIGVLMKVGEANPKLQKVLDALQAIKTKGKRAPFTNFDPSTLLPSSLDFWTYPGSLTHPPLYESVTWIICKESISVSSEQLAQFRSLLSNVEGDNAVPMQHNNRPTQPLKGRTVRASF
Protocol: (§1) An applied photophysics stopped-flow instrument has been used for assaying the CA catalysed CO2 hydration activity.[32]
(§2) Phenol red (at a concentration of 0.2 mM) was used as indicator, working at the absorbance maximum of 557 nm, with 20 mM Hepes (pH 7.5), and 20 mM Na2SO4 (for maintaining constant the ionic strength), following the initial rates of the CA-catalysed CO2 hydration reaction for a period of 10 − 100 s. The CO2 concentrations ranged from 1.7 to 17 mM for the determination of the kinetic parameters and inhibition constants. […] The uncatalysed rates were determined in the same manner and subtracted from the total observed rates. Stock solutions of inhibitor (0.1 mM) were prepared in distilled – deionised water, and dilutions up to 0.01 nM were done thereafter with the assay buffer. Inhibitor and enzyme solutions were preincubated together for 15 min at room temperature prior to assay in order to allow for the formation of the E – I complex. […] The inhibition constants were obtained by nonlinear least-squares methods using PRISM 3 and the Cheng – Prusoff equation, as reported earlier[15]^,[33–37]^, and represent the mean from at least three different determinations. All CA isoforms were recombinant ones obtained in-house as reported earlier[12]^,[18]^,[38–45].

hCA XII = biological target: T2, hCA XII (Homo sapiens, UniProt O43570); assay: stopped flow CO2 hydrase assay, hCA XII; assay type: biochemical; conditions: 15 min incubation; for Ki: recombinant enzyme, mean from three assays, errors ± 5–10%
T2 construct: made in house
T2 sequence (O43570 25-354): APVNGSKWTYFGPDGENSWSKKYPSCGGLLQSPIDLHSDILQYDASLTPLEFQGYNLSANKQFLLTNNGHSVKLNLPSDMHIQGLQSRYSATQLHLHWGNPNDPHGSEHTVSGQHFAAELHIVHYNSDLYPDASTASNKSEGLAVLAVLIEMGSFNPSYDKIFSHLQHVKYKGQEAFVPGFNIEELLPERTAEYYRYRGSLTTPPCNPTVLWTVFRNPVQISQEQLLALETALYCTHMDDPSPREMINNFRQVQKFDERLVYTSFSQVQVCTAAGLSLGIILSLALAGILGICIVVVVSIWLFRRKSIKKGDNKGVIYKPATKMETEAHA
Protocol: as §1, §2

hCA II = biological target: T3, hCA II (Homo sapiens, UniProt P00918); assay: stopped flow CO2 hydrase assay, hCA II; assay type: biochemical; conditions: 15 min incubation
T3 construct: made in house
Protocol: as §1, §2

hCA IX = biological target: T4, hCA IX (Homo sapiens, UniProt Q16790); assay: stopped flow CO2 hydrase assay, hCA IX; assay type: biochemical; conditions: recombinant enzyme, 15 min incubation, mean from three assays, errors ± 5–10%
T4 construct: made in house
Protocol: as §1, §2

[1] = recombinant enzyme, mean from three assays, errors ± 5–10%, read-out: KI (nM) hCA II

| Structure (SMILES) | Ki (hCA I) [nM] | Ki (hCA XII) [nM] | Ki (hCA II; [1]) [nM] | Ki (hCA IX) [nM] | inhibition of hCA I in words (hCA I) | Ki (hCA II; rounded, read-out: Ki hCA II) [nM] | melting point [°C] | inhibition of hCA II in words (hCA II) | inhibition of hCA XII in words (hCA XII) |
| --- | --- | --- | --- | --- | --- | --- | --- | --- | --- |
| Cc1ccc2c(c1)C=NS(=O)(=O)O2 [2a, 6-Methyl-1,2,3-benzoxathiazine 2,2-dioxide] | 25700 | 98.2 | 116 | 72 |  |  |  |  |  |
| COc1ccc2c(c1)C=NS(=O)(=O)O2 [2b, 6-Methoxy-1,2,3-benzoxathiazine 2,2-dioxide] | > 100000 | 75.1 | 168 | 62.8 | did not inhibit |  |  |  |  |
| O=S1(=O)N=Cc2cc(Br)ccc2O1 [2d, 6-Bromo-1,2,3-benzoxathiazine 2,2-dioxide] | > 100000 | 186 | 8320 | 27.4 | did not inhibit | 8300 |  |  |  |
| O=S1(=O)N=Cc2ccc(Br)cc2O1 [2h, 7-Bromo-1,2,3-benzoxathiazine 2,2-dioxide] | 46500 | 70.1 | 45.1 | 22.3 |  |  |  |  |  |
| O=S1(=O)N=Cc2c(cccc2-c2ccccc2)O1 [5a, 5-Phenyl-1,2,3-benzoxathiazine 2,2-dioxide] | > 100000 | 12600 | 9870 | 5250 |  |  | 156 to 157 |  |  |
| O=S1(=O)N=Cc2c(cccc2-c2ccc(F)cc2)O1 [5b, 5-(4-Fluorophenyl)-1,2,3-benzoxathiazine 2,2-dioxide] | > 100000 | 7460 | 14800 | 4140 |  |  |  |  |  |
| COc1ccc(-c2cccc3c2C=NS(=O)(=O)O3)cc1 [5c, 5–(4-Methoxyphenyl)-1,2,3-benzoxathiazine 2,2-dioxide] | > 100000 | 18000 | 36900 | 10900 |  |  | 177 to 178 |  |  |
| O=S1(=O)N=Cc2c(cccc2-c2ccc(Cl)c(Cl)c2)O1 [5d, 5-(3,4-Dichlorophenyl)-1,2,3-benzoxathiazine 2,2-dioxide] | > 100000 | 45300 | > 100000 | > 100000 |  |  | 230 to 231 | not inhibited |  |
| CCOC(=O)c1ccc(-c2cccc3c2C=NS(=O)(=O)O3)cc1 [5e, Ethyl 4-(2,2-dioxido-1,2,3-benzoxathiazin-5-yl)benzoate] | > 100000 | > 100000 | > 100000 | > 100000 |  |  |  | not inhibited | did not exhibit any inhibitory properties |
| COc1ccc(-c2ccc3c(c2)OS(=O)(=O)N=C3)cc1 [5h, 7-(4-Methoxyphenyl)-1,2,3-benzoxathiazine 2,2-dioxide] | 30300 | 36.4 | 14.3 | 45.2 |  |  | 181 to 182 |  |  |

Stronger by Ki (hCA I), values ahead:

| Ki (hCA I) [nM] | Ki (hCA XII) [nM] | Ki (hCA II; [1]) [nM] | Ki (hCA IX) [nM] | inhibition of hCA I in words (hCA I) | Ki (hCA II; rounded, read-out: Ki hCA II) [nM] | melting point [°C] | inhibition of hCA II in words (hCA II) | Structure (SMILES) | inhibition of hCA XII in words (hCA XII) |
| --- | --- | --- | --- | --- | --- | --- | --- | --- | --- |
| 15200 | 8.2 | 2.1 | 69.8 |  |  | 164 to 165 |  | O=S1(=O)N=Cc2ccc(-c3ccc(F)cc3)cc2O1 [5g, 7-(4-Fluorophenyl)-1,2,3-benzoxathiazine 2,2-dioxide] |  |
| 6710 | 4.8 | 9.5 | 40.8 |  |  | 165 to 166 |  | O=S1(=O)N=Cc2cccc(-c3ccc(Cl)c(Cl)c3)c2O1 [5m, 8-(3,4-Dichlorophenyl)-1,2,3-benzoxathiazine 2,2-dioxide] |  |
| 5680 | 78.3 | 7.7 | 28.6 |  |  | 171 to 172 |  | O=S1(=O)N=Cc2ccc(-c3ccccc3)cc2O1 [5f, 7-Phenyl-1,2,3-benzoxathiazine 2,2-dioxide] |  |
| 4260 | 7.3 | 12.3 | 62.7 |  |  | 133 to 134 |  | COc1ccc(-c2cccc3c2OS(=O)(=O)N=C3)cc1 [5l, 8-(4-Methoxyphenyl)-1,2,3-benzoxathiazine 2,2-dioxide] |  |
| 3320 | 121 | 71.8 | 58.3 |  |  |  |  | O=S1(=O)N=Cc2cc(F)ccc2O1 [2c, 6-Fluoro-1,2,3-benzoxathiazine 2,2-dioxide] |  |
| 1850 | 12.4 | 5.6 | 32.3 |  |  | 123 to 124 |  | O=S1(=O)N=Cc2cccc(-c3ccc(F)cc3)c2O1 [5k, 8-(4-Fluorophenyl)-1,2,3-benzoxathiazine 2,2-dioxide] |  |
| 1520 | 63.4 | 39 | 73.6 |  |  |  |  | COc1cccc2c1OS(=O)(=O)N=C2 [2i, 8-Methoxy-1,2,3-benzoxathiazine 2,2-dioxide] |  |
| 987 | 83.1 | 55.2 | 39.7 |  |  |  |  | COc1ccc2c(c1)OS(=O)(=O)N=C2 [2f, 7-Methoxy-1,2,3-benzoxathiazine 2,2-dioxide] |  |
| 788 | 86.3 | 113 | 41.8 |  |  |  |  | O=S1(=O)N=Cc2cccc(Br)c2O1 [2k, 8-Bromo-1,2,3-benzoxathiazine 2,2-dioxide] |  |
| 668 | 61.8 | 0.5 | 49.1 |  |  | 164 to 165 |  | O=S1(=O)N=Cc2cccc(-c3ccccc3)c2O1 [5j, 8-Phenyl-1,2,3-benzoxathiazine 2,2-dioxide] |  |
| 657 | 58 | 78.9 | 53.1 |  |  |  |  | Cc1ccc2c(c1)OS(=O)(=O)N=C2 [2e, 7-Methyl-1,2,3-benzoxathiazine 2,2-dioxide] |  |
| 466 | 34.7 | 89.2 | 65.9 |  |  |  |  | O=S1(=O)N=Cc2cccc(F)c2O1 [2j, 8-Fluoro-1,2,3-benzoxathiazine 2,2-dioxide] |  |
| 448 | 112 | 86.7 | 55.4 |  |  |  |  | O=S1(=O)N=Cc2ccc(F)cc2O1 [2g, 7-Fluoro-1,2,3-benzoxathiazine 2,2-dioxide] |  |
| 356 | 90.5 | 0.8 | 38 |  |  | 204 to 205 |  | CCOC(=O)c1ccc(-c2ccc3c(c2)OS(=O)(=O)N=C3)cc1 [5i, Ethyl 4-(2,2-dioxido-1,2,3-benzoxathiazin-7-yl)benzoate] |  |
